Measurements published in PMC5209880, “Mobilization of hematopoietic stem cells with the novel CXCR4 antagonist POL6326 (balixafortide) in healthy volunteers—results of a dose escalation trial” (Journal of Translational Medicine, 2017).
Where two headings read alike, the source gives them in different places.

Experiments:
[1] = test system: patients receiving a plerixafor-mobilized graft; details: recipients of a plerixafor-mobilized graft; cited from earlier work
[2] = test system: CD34+ cells; details: cited from earlier work
Source text: The ability of CXCR4 antagonists to rapidly dislodge stem cells from the marrow has been recognized for many years. Previously studied compounds were neither universally well tolerated nor very potent. The only currently approved CXCR4 antagonist plerixafor mobilized a median of 16 CD34+ cells per µL when administered alone (without G-CSF) in healthy donors, which is barely sufficient to generate a normal-sized graft in two apheresis sessions. || The comparator agent in our study was G-CSF given in split doses as is routine practice in our center; the rationale is twofold: more efficient mobilization and potentially better tolerability. […] Thus the advantage in efficiency of single-dose G-CSF vs. balixafortide at the doses tested here would be les ...

[3] = Pharmacokinetics from serial plasma samples after intravenous infusion
Procedure: (§1) A total of 27 volunteers were treated with balixafortide. A treatment consisted of a single intravenous infusion of balixafortide in normal saline at doses of 500, 1000, 1500, 2000 and 2500 μg/kg, based on actual weight, followed by sequential clinical and blood analyses (see below). Initially conceived as a classical 3 + 3 dose escalation design, the volunteers were assigned to four groups defined by increasing dose levels of balixafortide (500, 1000, 1500, and 2000 μg/kg) administered by constant rate infusion at over 2 h. Subsequently, amendments were added to test additional modalities: Group 6 received 2500 μg/kg under the same conditions. Volunteers assigned to Group 5 received a dose level of 2000 μg/kg by an continuously increasing infusion rate (ramp-infusion instead of constant rate infusion) applied over 2 h. In group 7, a dose level of 1000 μg/kg was infused over 1 h at a constant rate and compared (intra-individually) to the 2 h infusion given with an interval of ≥4 weeks. A second balixafortide treatment was furthermore tested in volunteers from groups 2, 3 and 6 with groups 2 and 3 receiving 2500 μg/kg and group 6 given 1500 μg/kg as the second infusion. […] Thus, to allow for intra-individual comparison, 12 donors received a second dose of balixafortide (2 h constant infusion rate for all) after a minimum wash-out period of 4 weeks.
Plasma samples were collected at the indicated times and kept frozen until immediately before analysis.
Serial plasma samples were assayed for balixafortide concentrations and pharmacokinetic parameters were calculated using Phoenix WinNonlin 6.4.

[4] = test system: CD34+ cells (HSPC); test: Mobilization of CD34+ cells, single platform flow cytometry of blood; assay type: in vivo, human
Procedure: A total of 27 volunteers were treated with balixafortide.
(§2) Blood samples were collected at the indicated times (Figs. 1, 2, 3, 4, 5 and 6) and kept at room temperature (maximum 2–3 h.) until immediately before analysis. Complete blood counts were assessed with the Sysmex XT1800 hematology analyzer (Norderstedt, Germany). CD34+ cells were quantified using the single platform flow cytometry analysis with the SCE Kit [Becton–Dickinson (BD), Heidelberg, Germany] according to the manufacturer’s instructions and ISHAGE guidelines. In addition, multi-parametric flow cytometric analyses were performed to quantify co-mobilized mature cell subsets such as T (CD45+ CD3+), B (CD45+ CD19+) and NK (CD45+ CD56+ 16+) cells (Multitest, T cells, BD), T cell subpopulations (CD45+ CD3+ CD4+/CD8+, Multitest, TBNL cells, BD) and monocytes (CD45+ CD14+, all from BD). In addition, plasmacytoid dendritic cell progenitors (pro-pDCs) were identified as CD45dimCD34dimCD45RA + CD123high (all moABs from BD). Lyse-no-wash protocols were used in conjunction with BD counting beads for direct cell enumeration for CD34+ cells and T cell subsets; all other cell concentrations were calculated using frequencies relative to directly enumerated cell species, such as CD34+, CD45+ or CD3+ cells.

[5] = test system: healthy male volunteers; test: Subjective rating questionnaire of G-CSF vs. balixafortide at follow-up; details: number of responses
[6] = test system: leukocytes; test: Mobilization of mature hematopoietic cells (blood counts, flow cytometry); assay type: in vivo, human
Procedure: as §2

[7] = test system: healthy male volunteers; test: Phase I dose escalation trial: safety and tolerability, adverse events
Procedure: Additional eligibility (inclusion) criteria for treatment with balixafortide were the same as for G-CSF mobilized stem cell donation. Between G-CSF mobilization/HSPC donation and study participation there was a wash-out period of at least 6 weeks.
Study drug was administered on an in-patient basis in the phase I clinical trial unit of Goethe University Medical Center, the ‘Klinisches Studienzentrum Rhein-Main’. Volunteers were discharged 24 h after treatment, to return for a follow-up appointment 8–14 days thereafter.
as §1
Vital signs were monitored immediately prior to and in the first 24 h after the start of the infusion of balixafortide; serial blood samples were drawn for biochemical safety profiling and pharmacokinetic/pharmacodynamic analyses. Given the cationic nature of the compound [17] the risk of local or systemic symptoms of histamine release was identified and anti-histamine treatment was proposed (per protocol) in case of such symptoms. […] Volunteers who received prophylactic or therapeutic anti-histamine medication are listed accordingly in Table 1.

[8] = test system: plasmacytoid dendritic cell progenitors (pro-pDCs); test: Mobilization of plasmacytoid dendritic cell progenitors (pro-pDCs), flow cytometry; assay type: in vivo, human; details: balixafortide 1st treatment, constant infusion rate, 2 h; n = 21, mean ± SEM
Procedure: as §2

[9] = test system: healthy male volunteers; details: in vivo
[10] = test system: CFU-C (HSPC); test: Circulating colony-forming units-culture (CFU-C) in methylcellulose media; assay type: in vivo, human; details: all doses, mean ± SEM
Source text: Circulating colony-forming units-culture (CFU-C) were quantified by plating aliquots of lysed peripheral blood in commercial cytokine-replete methylcellulose media (StemMACS HSC-CFU lite with Epo, human, Miltenyi Biotec GmbH, Bergisch-Gladbach, Germany).

[11] = 500 μg/kg, 2 h const. infusion, n = 3 volunteers
[12] = 1000 μg/kg, 1 h const. infusion, n = 3 volunteers
[13] = 1000 μg/kg, 2 h const. infusion, n = 7 volunteers
[14] = 1500 μg/kg, 2 h const. infusion, n = 7 volunteers
[15] = 2000 μg/kg, 2 h const. infusion, n = 6 volunteers
[16] = 2000 μg/kg, 2 h ramp infusion, n = 3 volunteers
[17] = 2500 μg/kg, 2 h const. infusion, n = 10 volunteers

c1cc(CN2CCCNCCNCCCNCC2)ccc1CN1CCCNCCNCCCNCC1 [plerixafor, reference compound]
Patients who developed acute GvHD 3° or 4° [1]: 1/20 | Median CD34+ cells mobilized ([2]; administered alone (without G-CSF) in healthy donors): 16 CD34+ cells per µL

C[C@@H]1NC(=O)[C@H](Cc2c[nH]cn2)NC(=O)[C@H](Cc2ccc(O)cc2)NC(=O)[C@@H]2CCCN2C(=O)[C@H]2CCCN2C(=O)[C@H](CCCCN)NC(=O)[C@H](CCC(N)=O)NC(=O)[C@H](Cc2ccc(O)cc2)NC(=O)[C@@H]2CSSC[C@H](NC1=O)C(=O)N[C@@H](CO)C(=O)N[C@@H](C)C(=O)N1CCC[C@@H]1C(=O)N[C@@H](CCN)C(=O)N[C@@H](CCCNC(=N)N)C(=O)N[C@@H](Cc1ccc(O)cc1)C(=O)N2 [balixafortide]
Volume of distribution ([3]; human plasma, i.v. infusion 500-2500 µg/kg, Phoenix WinNonlin 6.4, approximately): 0.5 to 0.6 L/kg | Clearance ([3]; human, i.v. infusion): almost equal to the glomerular filtration rate | Dose dependence of Cmax and AUC ([3]; human, i.v. infusion 500-2500 µg/kg, n = 3-6): dose linearity for both Cmax and AUC | half-life ([3]; human, plasma, iv): ~5 h | Time of peak CD34+ mobilization after the end of the infusion ([4]; 500 µg/kg): 1 h | Time of peak CD34+ mobilization after the end of the infusion ([4]; doses higher than 500 µg/kg): approximately 4 h | Mean peak mobilization of CD34+ cells ([4]; doses of 1500-2500 µg/kg, single i.v. infusion, mean ± SEM): 38.2 ± 2.8 CD34+ cells/µL | Side effects in the course of treatment: Abdominal pain [5]: 0 | Side effects in the course of treatment: Bone pain [5]: 0 | Side effects in the course of treatment: Fatigue [5]: 4 | Side effects in the course of treatment: Fever [5]: 0 | Side effects in the course of treatment: Flu-like symptoms [5]: 0 | Side effects in the course of treatment: Headache [5]: 1 | Side effects in the course of treatment: Insomnia [5]: 1 | Side effects in the course of treatment: Palpitation [5]: 0 | Side effects in the course of treatment: Skin reactions [5]: 13 | Side effects in the course of treatment: Sweating [5]: 1 | Side effects in the course of treatment: Vomiting [5]: 1 | Mature cells mobilized relative to G-CSF ([6]; doses of 1500-2500 µg/kg): approximately half as many mature cells as G-CSF | White blood counts (WBCs) reached ([6]; doses of 1500-2500 µg/kg, mean ± SEM): 25.3 ± 1.4 × 10*3 WBC/µL | Mild skin reactions such as flushing, urticaria or local itching, volunteers reporting ([7]; 500 µg/kg): 1/3 | Infusion site erythema (volunteers with AE) [7, 11]: 1 | Volunteers with AE [7, 11]: 1 | Mild skin reactions such as flushing, urticaria or local itching, volunteers reporting ([7]; 1000 µg/kg): 4/10 | Pruritus (volunteers with AE) [7, 12]: 1 | Volunteers with AE [7, 12]: 1 | BP increase (volunteers with AE) [7, 13]: 2 | Infusion site pruritus (volunteers with AE) [7, 13]: 1 | Pruritus (volunteers with AE) [7, 13]: 2 | Volunteers with AE [7, 13]: 5 | Mild skin reactions such as flushing, urticaria or local itching, volunteers reporting ([7]; 1500 µg/kg): 2/7 | Erythema (volunteers with AE) [7, 14]: 1 | Infusion site erythema (volunteers with AE) [7, 14]: 2 | Infusion site irritation (volunteers with AE) [7, 14]: 1 | Infusion site pruritus (volunteers with AE) [7, 14]: 1 | Pruritus (volunteers with AE) [7, 14]: 1 | Urticaria (volunteers with AE) [7, 14]: 1 | Volunteers with AE [7, 14]: 2 | Mild skin reactions such as flushing, urticaria or local itching, volunteers reporting ([7]; 2000 µg/kg): 8/9 | Blood CK increased (volunteers with AE) [7, 15]: 2 | Bone pain (volunteers with AE) [7, 15]: 1 | Erythema (volunteers with AE) [7, 15]: 4 | Flushing (volunteers with AE) [7, 15]: 1 | Hypoasthesia (volunteers with AE) [7, 15]: 1 | Pruritus (volunteers with AE) [7, 15]: 4 | Urticaria (volunteers with AE) [7, 15]: 1 | Volunteers with AE [7, 15]: 6 | Flushing (volunteers with AE) [7, 16]: 1 | Pruritus (volunteers with AE) [7, 16]: 2 | Volunteers with AE [7, 16]: 2 | Mild skin reactions such as flushing, urticaria or local itching, volunteers reporting ([7]; 2500 µg/kg): 7/10 | Erythema (volunteers with AE) [7, 17]: 7 | Feeling hot (volunteers with AE) [7, 17]: 1 | Headache (volunteers with AE) [7, 17]: 1 | Hypoasthesia (volunteers with AE) [7, 17]: 1 | Hypoasthesia oral (volunteers with AE) [7, 17]: 2 | Muscle tightness (volunteers with AE) [7, 17]: 1 | Throat tightness (volunteers with AE) [7, 17]: 1 | Vertigo (volunteers with AE) [7, 17]: 1 | Volunteers with AE [7, 17]: 7 | Severe adverse events (SAEs) ([7]; all doses 500-2500 µg/kg, 27 volunteers, 39 doses): No severe adverse events (SAEs) were observed | Systolic blood pressure reading of >150 mmHg, considered possibly related to study drug ([7]; whole trial): 2 subjects | Unexplained elevation in serum creatinine kinase, considered possibly related to study drug ([7]; whole trial): 2 subjects

B1: filgrastim (protein, UniProt P09919 31-207, looked up)
Granulocyte …: TPLGPASSLPQSFLLKCLEQVRKIQGDGAALQEKLVSECATYKLCHPEELVLLGHSLGIPWAPLSSCPSQALQLAGCLSQLHSGLFLYQGLLQALEGISPELGPTLDTLQLDVADFATTIWQQMEELGMAPALQPTQGAMPAFASAFQRRAGGVLVASHLQSFLEVSYRVLRHLAQP
modifications: filgrastim, N-terminal Met
notes: cytokine, standard hematopoietic stem and progenitor cell mobilizing agent
Mobilization of pDC progenitors (% of CD34+CD45dim) [8]: 2.18±0.34% | Mobilization response of CD34+ cells ([4]; 5-day course of filgrastim 7.5-10 µg/kg per day in 2 divided doses, mean ± SEM): 121.6 ± 8.6 CD34+ cells/μL | Effectiveness of G-CSF regimen relative to balixafortide, CD34+ mobilization ([4]; intra-individual comparison, balixafortide 1500-2500 µg/kg, on average): about three times as effective | Ratio between T-lymphocytes and CD34+ cells in mobilized blood ([6]; mean ± SEM): 26.2 ± 1.98 :1 | Side effects in the course of treatment: Abdominal pain [9]: 2 | Side effects in the course of treatment: Bone pain [9]: 24 | Side effects in the course of treatment: Fatigue [9]: 11 | Side effects in the course of treatment: Fever [9]: 2 | Side effects in the course of treatment: Flu-like symptoms [9]: 21 | Side effects in the course of treatment: Headache [9]: 11 | Side effects in the course of treatment: Insomnia [9]: 0 | Side effects in the course of treatment: Palpitation [9]: 1 | Side effects in the course of treatment: Skin reactions [9]: 1 | Side effects in the course of treatment: Sweating [9]: 0 | Side effects in the course of treatment: Vomiting [9]: 0 | Average CD34+ cell counts ([2]; same daily dose as a single injection): mid-sixties’ range | Clonogenicity: mobilized CD34+ cells per 1 CFU-C [10]: 3.2 ± 0.2 CD34+ cells
